# Key:
# [1] = system: Floratam St. Augustine grass; assay: Turfgrass quality and color ratings, St. Augustine grass (Example 9); format: in vivo; parameters: key: 1-10 scale: 10 = dark green turf, 1 = dead/brown, 6 = minimally acceptable; conditions: scale 1-10
# Description: In this Example, the effect of a fertilizer comprising lysine on warn season turfgrass growth was examined. The effects of lysine (HCl) and LIQUID LYSINE on a common type of lawn quality turfgrass (St. Augustine grass) were compared with those of urea and Milorganite. St. Augustine grass is a commonly utilized turfgrass throughout the warm, tropical zones for lawn turf and is a commercially significant species.
# Twelve fertilizer treatments comprising three concentrations of each fertilizer composition (Milorganite (N—P—K, 6-2-0), urea N—P—K, 46-0-0), LIQUID LYSINE (N—P—K, 10-2-1), and lysine (HCl) (N—P—K, 15-2-1)) were prepared and applied to 4 replications of Floratam St. Augustine grass. The lysine (HCl) was dissolved in water prior to application. Each fertilizer treatment was applied in concentrations of 0.5 lb N/1000 ft^2/month, 1.0 lb N/1000 ft^2/month and 3.0 lb N/1000 ft^2/month. The urea, LIQUID LYSINE and lysine (HCl) were applied as foliar liquids, while Milorganite was applied as a granular fertilizer. Plot size was 1 m×2 m set up as a randomized complete block. Plots were mowed at 3.0 inches before fertilizer application. Irrigation (0.15 inch) was applied following application. Plots were rated for turfgrass quality and color (scale of 1-10 where 10=dark green turf, 1=dead/brown turf; and 6=minimally acceptable turf) and phytotoxicity (scale of 0-5, where 5=worst, and 2=minimally objectionable) throughout the study period. Quality, color, and phytotoxicity were measured on 2 days before application (day −2) and day 2, day 5, day 15 and day 21 after application. All data was subject to statistical analysis and significant means were determined. Average turfgrass quality ratings for the treatments are presented in Table 6 and the quality results for application rates of 1.0 lb N/1000 ft^2/month are graphically presented in FIG. 2.
# [2] = system: Moonlight Kentucky bluegrass; assay: Blade density rating, Kentucky bluegrass lawn (Example 17); format: in vivo; conditions: Day 70
# Description: In this Example, the effect of a fertilizer comprising lysine on cool season lawn variety turfgrass growth was examined. The effects of lysine (HCl) and LIQUID LYSINE on a common variety of law turfgrass (Moonlight Kentucky bluegrass) were compared with those of urea, Milorganite and a blended fertilizer (a blend of methylene urea and urea in an approximately 1:1 ratio).
# Fifteen fertilizer treatments comprising three concentrations of each fertilizer composition (Milorganite N—P—K, 6-2-0), urea (N—P—K, 46-0-0), a blended fertilizer, LIQUID LYSINE (N—P—K, 10-2-1), and lysine (HCl) (N—P—K, 15-2-1)) were prepared and applied to 3 replications of newly established “Moonlight” variety Kentucky bluegrass lawn turfgrass. The urea, lysine (HCl), and LIQUID LYSINE were dissolved/suspended in 1.5 gal water prior to application. […], 1.0 lb N/1000 ft^2/year and 3.0 lb N/1000 ft^2/year, The urea, LIQUID LYSINE and lysine (HCl) were applied as foliar liquids, while Milorganite and the blended fertilizer were applied as granular fertilizers. Plot size was 4 ft×8 ft laid out in a replicated complete block design. Plots were mowed at 2.0 inches before fertilizer application and mowed two times per week to 2.0 inch height. Grass clippings were not removed from the plots and no supplemental cultural maintenance or pest management was applied. Irrigation (0.15 inch) was applied following application and thereafter only when necessary to insure survival of the turf. Plots were rated for turfgrass quality (scale of 1-9 where 9=dark green turf, 1=dead/brown turf, and 6=minimally acceptable turf) and phytotoxic injury (scale of 0-9 where 9=significant foliar injury and 2=minimally objectionable foliar injury) throughout the study period. Quality was measured prior to application (day 0) and day 37, day 70 and day 95 after application. Injury was measured on day 37 and day 70 after application. In addition, blade density of the grass was measured on day 70 after application (scale of 1-9, where 9=very dense turf, 1=low density turf). All data was subject to statistical analysis and significant means were determined.
# [3] = Monthly Rate 0.5 lbs N/1000 ft^2, Day 2
# [4] = Monthly Rate 0.5 lbs N/1000 ft^2, Day 5
# [5] = Monthly Rate 0.5 lbs N/1000 ft^2, Day 15
# [6] = Monthly Rate 0.5 lbs N/1000 ft^2, Day 21
# [7] = Monthly Rate 0.5 lbs N/1000 ft^2, Day −2 (before application)
# [8] = Monthly Rate 1.0 lbs N/1000 ft^2, Day 2
# [9] = Monthly Rate 1.0 lbs N/1000 ft^2, Day 5
# [10] = Monthly Rate 1.0 lbs N/1000 ft^2, Day 15
# [11] = Monthly Rate 1.0 lbs N/1000 ft^2, Day 21
# [12] = Monthly Rate 1.0 lbs N/1000 ft^2, Day −2 (before application)
# [13] = Monthly Rate 3.0 lbs N/1000 ft^2, Day 2
# [14] = Monthly Rate 3.0 lbs N/1000 ft^2, Day 5
# [15] = Monthly Rate 3.0 lbs N/1000 ft^2, Day 15
# [16] = Monthly Rate 3.0 lbs N/1000 ft^2, Day 21
# [17] = Monthly Rate 3.0 lbs N/1000 ft^2, Day −2 (before application)
# [18] = Weekly Rate 0.5 lbs N/1000 ft^2
# [19] = Weekly Rate 1.0 lbs N/1000 ft^2
# [20] = Weekly Rate 3.0 lbs N/1000 ft^2
Structure (SMILES),"Color Ratings - St. Augustine Grass [1, 3]","Quality Ratings - St. Augustine Grass [1, 3]","Color Ratings - St. Augustine Grass [1, 4] [cd]","Quality Ratings - St. Augustine Grass [1, 4] [bcd]","Color Ratings - St. Augustine Grass [1, 5]","Quality Ratings - St. Augustine Grass [1, 5]","Color Ratings - St. Augustine Grass [1, 6]","Quality Ratings - St. Augustine Grass [1, 6]","Color Ratings - St. Augustine Grass [1, 7]","Quality Ratings - St. Augustine Grass [1, 7]","Color Ratings - St. Augustine Grass [1, 8]","Quality Ratings - St. Augustine Grass [1, 8]","Color Ratings - St. Augustine Grass [1, 9] [bc]","Quality Ratings - St. Augustine Grass [1, 9]","Color Ratings - St. Augustine Grass [1, 10]","Quality Ratings - St. Augustine Grass [1, 10] [cde]","Color Ratings - St. Augustine Grass [1, 11] [abc]","Quality Ratings - St. Augustine Grass [1, 11]","Color Ratings - St. Augustine Grass [1, 12]","Quality Ratings - St. Augustine Grass [1, 12]",further results
"Cl.NCCCC[C@H](N)C(=O)O [Lys (HCl) 15% N, L-lysine monohydrochloride]",6.5,6.5,7.3,7.1,7.0ef,7.3ef,7.4c,7.3cd,6.6,6.5,7.0,6.6,7.6,7.3abc,7.6cd,7.9,8.0,7.9ab,6.6,6.4,"Color Ratings - St. Augustine Grass [1, 13]: 6.6; Quality Ratings - St. Augustine Grass [1, 13]: 6.9; Color Ratings - St. Augustine Grass [1, 14]: 8.0ab; Quality Ratings - St. Augustine Grass [1, 14]: 7.5ab; Color Ratings - St. Augustine Grass [1, 15]: 8.6a; Quality Ratings - St. Augustine Grass [1, 15]: 9.3a; Color Ratings - St. Augustine Grass [1, 16]: 8.0abc; Quality Ratings - St. Augustine Grass [1, 16]: 7.9ab; Color Ratings - St. Augustine Grass [1, 17]: 6.6; Quality Ratings - St. Augustine Grass [1, 17]: 6.3; Density Rating - Kentucky Bluegrass [2, 18]: 5.3cde; Density Rating - Kentucky Bluegrass [2, 19]: 6.3abc; Density Rating - Kentucky Bluegrass [2, 20]: 7.0ab"
"NC(N)=O [Urea, urea, reference compound]",6.9,6.8,7.4,7.1,7.8bc,7.6def,7.6bc,7.6bc,6.4,6.3,6.9,6.8,7.6,7.5ab,7.5cde,7.9,7.9,7.6bc,6.4,6.3,"Color Ratings - St. Augustine Grass [1, 13]: 6.8; Quality Ratings - St. Augustine Grass [1, 13]: 6.9; Color Ratings - St. Augustine Grass [1, 14]: 8.3a; Quality Ratings - St. Augustine Grass [1, 14]: 7.3abc; Color Ratings - St. Augustine Grass [1, 15]: 8.8a; Quality Ratings - St. Augustine Grass [1, 15]: 9.1ab; Color Ratings - St. Augustine Grass [1, 16]: 8.5a; Quality Ratings - St. Augustine Grass [1, 16]: 8.3a; Color Ratings - St. Augustine Grass [1, 17]: 6.1; Quality Ratings - St. Augustine Grass [1, 17]: 6.1; Density Rating - Kentucky Bluegrass [2, 18]: 5.0de; Density Rating - Kentucky Bluegrass [2, 19]: 5.3cde; Density Rating - Kentucky Bluegrass [2, 20]: 7.0ab"
